Measured values taken from patent publication US6458840B2, “Use of valproic acid analog for the treatment and prevention of migraine and affective illness” (American Biogenetic Sciences, Inc., priority 1998, dated 2002).

What was measured:
[1] = test system: amygdala-kindled seizures; experiment: Amygdala-kindling in fully kindled rats (anti-seizure effects); assay type: in vivo, rat; conditions: 100 mg/kg
Protocol: For implantation of stimulation and recording electrodes, rats were anesthetized with chloral hydrate (360 mg/kg i.p.) and received stereotaxic implantation (according to the surgery methods described in the atlas of Paxinos and Watson [1986]) of one bipolar electrode in the right basolateral amygdala. Coordinates for electrode implantation were AP-2.2 mm, L-4.8 mm, V-8.5 mm. All coordinates were measured from bregma. Skull screws served as the indifferent reference electrode. The electrode assembly was attached to the skull by dental acrylic cement. After a postoperative period of 2 weeks, constant current stimulations (500 μA, 1 ms, monophasic square-wave pulses, 50/s for 1 s) were delivered to the amygdala at intervals of 1/day until ten stage 5 seizures were elicited. The electrical susceptibility of the stimulated region (threshold for induction of afterdischarges) was recorded on the first day of the experiment (initial afterdischarge threshold) as well as after kindling acquisition (with an interval of at least 4 days after the tenth stage 5 seizure) using an ascending staircase procedure. The initial current intensity was 1 OμA, and the current intensity was increased in steps of about 20% of the previous current at intervals of 1 min until an afterdischarge of at least 3 s duration was elicited. […] In addition to afterdischarge threshold, the following parameters of kindled seizures were measured in fully-kindled rats after stimulation with the afterdischarge threshold current: seizure severity was classified according to Racine (1972): 1 -immobility, eye closure, twitching of vibrissae, sniffing, facial clonus; 2-head nodding associated with more severe facial clonus; 3-clonus of one forelimb; 4-rearing, often accompanied by bilateral forelimb clonus; 5-rearing with loss of balance and falling accompanied by generalized clonic seizures. Seizure duration 1 (SD 1) was the duration of limbic (stage 1-2) and/or motor seizures (stage 3-5). Seizure duration 2 (SD 2) included the time of limbic and/or motor seizures plus the adjacent time of immobility. Afterdischarge duration 1 (ADD 1) was the time of spikes in the EEG recorded from the site of stimulation with a frequency of at least 1 /s. Afterdischarge duration 2 (ADD 2) was the total time of spikes occurring in the EEG including those, which followed the ADD 1 with lower frequency and amplitude.
The anti-seizure effects of 2-propyl-4-hexynoic acid and valproate in fully kindled rats were determined in a group of 8-9 rats (no. 784, 785, 787, 788, 789, 790 [had to be taken out of the trial, because of loss of electrodes], 791, 792, 793) with reproducible stage 5 seizures.
Drugs were injected 15 min prior to stimulation intraperitoneally. Control experiments were always performed 2-3 days before each drug experiment. For control determinations, rats received i.p. injections of vehicle (saline) with the pretreatment time of the respective drug experiment. For all drug experiments, at least 4 days were interposed between 2 drug injections in order to avoid alterations in drug potency due to cumulation or tolerance.
The significance of differences between pre-drug control recordings and recordings after drug injection was calculated by the Wilcoxon signed rank test for paired replicates (SigmaStat for Windows, version 1.0).

[2] = Rotarod test (neurological deficit) in kindled rats; assay type: in vivo, rat; conditions: 100 mg/kg; 13′; all 8 animals +
Protocol: (§1) Tests included open field observations, rotarod test and body temperature. Tests were always performed in the same manner in control and drug experiments at two different times, just before application of drug or vehicle and 13 minutes after application.
The rotarod test was carried out with a rod of 6 cm diameter and rotation speed of 8 r.p.m. Neurological deficit was indicated by inability of the animals to maintain their equilibrium for at least 1 min on the rotating rod. Rats had to be trained prior to drug experiments to maintain their balance on the rod. After drug or vehicle treatment, rats which were not able to maintain their equilibrium on the rod for 1 minute were put again on the rod twice.

[3] = Rectal body temperature; assay type: in vivo, rat; conditions: 100 mg/kg; 13′ post appl.; mean of 8 rats; ante appl. 38.71
Protocol: Female Wistar rats (Harlan-Winkelmann, Borchen, Germany) were obtained at an age of 11-12 weeks (body weight 180-200 g). Female rats were employed because they are known to eliminate drugs less rapidly than do males, which was thought to be an advantage for drug potency studies. Rats were kept separately in plastic cages at controlled temperature (23° C.) and humidity (about 50 %) with a 12-h light cycle beginning at 7 a.m. They received standard diet (Altromin; Lage, F.R.G.), tap water and libitum. All drug injections were done in the afternoon at an ambient temperature of 23-25° C. The regular protocol started by taking the rats out of their individual cage, weighing them and joining them together on a table with six open plastic cages for better behavioral observations. Therefore animals were able to move from one cage to another and either to have social contact or to avoid it. After a short adaptation time of approximately 15 minutes, rectal body temperatures were recorded followed by drug or vehicle application.
as §1
In addition to these quantitative estimations of neurological deficit, behavioral alterations observed after administration of 2-propyl-4-hexynoic acid and valproate noted in the cage and by placing the animals in an open field of 90-100 cm diameter. Muscle tone was estimated by palpation of the abdomen. The extent of deficits in behavior after administration of the compounds was determined by a rating system (Loscher et al. 1987). In short, animals were taken out of the cage, placed in an open field, observed for about 1 minute and rated separately for ataxia, abducted hindlimbs, reduced righting, flat body posture, circling, Straub tail, piloerection, hypolocomotion and hyperlocomotion (abdominal muscle tone was evaluated by palpation at the end of the period of observation). All other parameters except ataxia were scored from 0 to 3: 0-absent; 1-equivocal; 2-present; 3- intense. For ataxia (06): 1 -slight ataxia in hind-legs (tottering of the hind quarters); 2-more pronounced ataxia with dragging of hind legs; 3-further increase of ataxia and more pronounced dragging of hind legs; 4-marked ataxia, animals lose balance during forward locomotion; 5- very marked ataxia with frequent loss of balance during forward locomotion; 6-permanent loss of righting reflexes, but animal still attempts to move forward. Rectal body temperature was measured by an electronic thermometer. Body weight of the animals was recorded once daily before drug injection. Significance of differences in behavior between pre-drug and post-drug data determined in the same group of animals was calculated by the Wilcoxon signed rank test for paired replicates and for body temperature by Student's paired t-test (SigmaStat for Windows, version 1.0). Differences in body temperature were always compared only within the experimental day with the pre-drug time as control to one post-drug time.

[4] = test system: amygdala-kindled seizures; conditions: rats; cited from earlier work
[5] = test system: PTZ induced seizures; conditions: literature / earlier application; cited from earlier work

## CC#CCC(CCC)C(=O)O (stereo not drawn) [2-propyl-4-liexynoic acid]
[1]; mean (X) of 8 kindled rats, control mean 48.50
  afterdisch.thresh. (ADT; μA): 126.25 μA
[1]; mean of 8 rats, control mean 5.00
  seizure severity (SS; score): 3.63 score
[1]; mean of 8 rats, control mean 83.00
  seizure duration1 (SD1; sec): 46.50 s
[1]; mean of 8 rats, control mean 86.00
  afterdisch.dur.1 (ADD1;sec): 62.75 s
[1]; mean of 8 rats, control mean 86.88
  afterdisch.dur.2 (ADD2; sec): 62.75 s
[1]; mean of 8 rats, control mean 258.75
  seizure duration2 (SD2; sec): 105.63 s
[2]
  rotarod-test, day of exper.: 0%
[3]
  BODY TEMP. (° C.) day of exper. 13′ post appl.: 38.31 °C

## CN1C(=O)CN=C(c2ccccc2)c2cc(Cl)ccc21 [Diazepam]
[4]
  effect on complete, late-stage or spontaneous kindled seizures, in words: not effective during the late stages
  effect on development / early stages of kindled seizures, in words: effective in inhibiting the earlier stages of seizure development

## O=C1NC(=O)C(c2ccccc2)(c2ccccc2)N1 [Phenytoin]
[4]
  effect on complete, late-stage or spontaneous kindled seizures, in words: effective block of spontaneous seizures
  effect on development / early stages of kindled seizures, in words: not seizures elicited during the early stages of kindling

## NC(=O)N1c2ccccc2C=Cc2ccccc21 [carbamazepine]
[5]
  antiepileptic effect in PTZ test, in words: less effective
[4]
  effect on complete, late-stage or spontaneous kindled seizures, in words: suppresses complete amygdala-kindled seizures
  effect on development / early stages of kindled seizures, in words: ineffective in preventing their development
